Experiment [1] relates to lung explants from a patient with IPF. The experiment in a line: IPF patient lung explant culture, gene expression and secreted proteins. To be noted: 10 days; nintedanib 0.1 μM, Alk5i 10 μM, Ereg Ab 2.5 μg/ml. The format is cell-based, human. The method, then:
FIGS. 13A-13I show epiregulin inhibition reduces mouse and human lung fibrosis. (FIGS. 13A-13E) As diagramed in (FIG. 13A), 10 days after intratracheal bleomycin mice began treatment with epiregulin antibody for two weeks prior to euthanasia. Lungs were analyzed for histology (FIG. 13B), modified Ashcroft score (FIG. 13C), hydroxyproline (FIG. 13D) and epiregulin gene expression (FIG. 13E), n=6 (PBS), 11 (BLM), and 7 (Ereg Ab). Histology images in (FIG. 13B) are 10× magnification with 200 μm scale bars and IHC images are 40× magnification with 40 μm scale bars. […] The same tissue was cut into cubes and cultured for 10 days in the presence of the multikinase inhibitor nintedanib 0.1 μM (Nin), the Alk5 inhibitor A-1544033 (IN-1130) 10 μM (Alk5i), epiregulin antibody 2.5 μg/ml (Ereg Ab) or non-treated vehicle control (NT). (FIGS. 13G-13I) Relative expression of indicated genes, n=4 per group. (FIG. 13I) Protein secretion of indicated genes measured by ELISA, n=8 per group. ELISA samples with poor signal and qPCR outliers identified by Grubbs's test with alpha-0.05 were excluded. Data are means±SD (ns, not significant. * P<0.05, ** P<0.01, **** P<0.0001) analyzed with one-way analysis of variance (ANOVA) with Tukey multiple-comparisons test (FIGS. 13C-13E) and Dunnett's multiple-comparisons test (FIGS. 13G-13I).
Pathologic assessment confirmed the diagnosis of early IPF, as evidenced by the presence of fibroblastic foci and hyperplasia of alveolar type II epithelial cells as shown in FIG. 13F. Lung tissue was plated in 24 well plates and cultured for 10 days with media changes every two days. The impact of epiregulin antibody compared to the multikinase inhibitor nintedanib and a transforming growth factor beta type I receptor TGF-βRI/Alk5 small molecule inhibitor was assessed by measuring disease relevant endpoints in gene expression and protein production. At the gene level, reduction in epiregulin expression was observed which was similar to that seen in mouse lung by both epiregulin and TGF-βRI inhibition (FIG. 13G, left panel). […] ECM-remodeling and inflammation. […]
For lung explants, human IPF lung (person) was obtained from the National Disease Research Interchange (NDRI), kept cold, and received <24 hours after cross-clamp. […] After 10 days, culture supernatants were collected, pre-cleared at 4000× g (4° C. 10 mins), transferred to a clean 96 well polypropylene plate and stored at −80° C., until protein endpoints measured. Measured secreted proteins include: human MCP-1 V-Plex (MesoScale Discovery, K151NND-1), human TIMP-1 (MesoScale Discovery, K151JFC-1) and human pro-collagen 1α1 DuoSet Elisa (R&D systems, DY6220-05). All proteins were assayed and analyzed in accordance with their respective assay product datasheets. […]

The conditions of experiment [2]: data from European Medicines Agency; read-out: KD (×10^−12); cited from earlier work.
The conditions of experiment [3]: data from European Medicines Agency; tocilizumab from reference 80; cited from earlier work.

As to `Cc1cccc(-c2[nH]c(Cc3cccc(C(N)=O)c3)nc2-c2ccc3nccnc3c2)n1` [TGF-βRI/Alk5 small molecule inhibitor], in experiment [1], the “COL1A1 gene expression, IPF lung explant” value is “significantly reduced expression”; the “epiregulin gene expression, IPF lung explant” value is on record as “reduction”; the “pro-COL1A1 protein level, IPF lung explant” value is “significant reduction”.

As to `COC(=O)c1ccc2c(c1)NC(=O)/C2=C(\Nc1ccc(N(C)C(=O)CN2CCN(C)CC2)cc1)c1ccccc1` [nintedanib], in experiment [1], the “pro-COL1A1 protein level, IPF lung explant” value is on record as “significant reduction”.

In the case of Adalimumab, the dissociation constant Kd in experiment [2] was 0.058 to 0.087 nM. Further, in experiment [3], the 50% inhibitory concentration (IC50) was 0.1 to 1 nM.

As for “Rizankizumab: FDA-approved monoclonal antibody medication”, in experiment [2], the dissociation constant (Kd) was 0.029 nM. Moreover, the IC50 in experiment [3] is 0.024 nM.

As to “Tocilizumab: FDA-approved monoclonal antibody medication”, the Kd in experiment [2] is 2.5 nM. Besides, in experiment [3], the IC50 was 0.09 nM.

Values taken from patent US20250154238A1, “METHODS AND COMPOSITIONS FOR TREATING AND PREVENTING FIBROSIS” (YALE UNIVERSITY, priority 2022, published 2025).
